One test addresses T1, PI5P4Kβ (Homo sapiens, UniProt P78356).
T1 construct: gene PIP4K2B; full-length cDNA in pGEX6P, E. coli BL21(DE3), GST fusion or GST cleaved by PreScission; mutant PI5P4Kβ+ His-tagged; homodimer
T1 sequence (P78356 1-416): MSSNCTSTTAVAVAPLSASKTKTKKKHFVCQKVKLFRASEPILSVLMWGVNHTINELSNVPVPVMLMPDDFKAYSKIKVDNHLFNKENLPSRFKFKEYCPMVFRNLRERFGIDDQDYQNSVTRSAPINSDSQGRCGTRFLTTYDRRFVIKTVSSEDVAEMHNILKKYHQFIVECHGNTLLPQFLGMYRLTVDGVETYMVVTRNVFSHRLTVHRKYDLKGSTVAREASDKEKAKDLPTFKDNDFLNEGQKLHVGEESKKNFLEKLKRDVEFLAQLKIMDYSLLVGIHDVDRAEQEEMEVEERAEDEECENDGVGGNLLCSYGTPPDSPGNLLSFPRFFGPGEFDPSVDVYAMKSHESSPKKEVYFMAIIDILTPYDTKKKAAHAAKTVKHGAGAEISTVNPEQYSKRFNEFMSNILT
Description: radiometric lipid kinase assay, TLC. Format: biochemical. Particulars: read-out: Km (μM ATP); PtdIns5P co-substrate, 10 mM MgCl2, pH 7.4, 30 °C, ATP 0–150 μM. The source says:
radiometric lipid kinase assay, TLC on PI5P4Kβ

The target of another test is T2, dPIP4K (Drosophila melanogaster, UniProt A4V141).
T2 construct: gene PIP4K; pGEX6P, E. coli BL21(DE3), GST fusion or GST cleaved by PreScission
T2 sequence (A4V141 1-404): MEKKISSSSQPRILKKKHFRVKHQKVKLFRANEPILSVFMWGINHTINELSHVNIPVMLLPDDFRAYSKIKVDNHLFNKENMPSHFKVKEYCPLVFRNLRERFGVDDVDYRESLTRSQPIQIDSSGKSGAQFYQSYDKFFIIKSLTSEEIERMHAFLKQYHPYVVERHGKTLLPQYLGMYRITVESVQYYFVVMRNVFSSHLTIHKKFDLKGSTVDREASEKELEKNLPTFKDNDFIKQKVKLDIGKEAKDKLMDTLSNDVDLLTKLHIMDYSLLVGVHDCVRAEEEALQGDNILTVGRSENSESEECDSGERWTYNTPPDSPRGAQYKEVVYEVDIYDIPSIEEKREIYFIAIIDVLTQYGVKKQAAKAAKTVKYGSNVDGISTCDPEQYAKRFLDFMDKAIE
Description: radiometric lipid kinase assay, TLC. Type of test: biochemical. Conditions: PtdIns5P co-substrate, 10 mM MgCl2, pH 7.4, 30 °C; labelled compound.

A further test has as its target T3, PPK-2 (Caenorhabditis elegans, UniProt Q9BL73).
T3 construct: pGEX6P, E. coli BL21(DE3), GST fusion or GST cleaved by PreScission
T3 sequence (Q9BL73 1-401): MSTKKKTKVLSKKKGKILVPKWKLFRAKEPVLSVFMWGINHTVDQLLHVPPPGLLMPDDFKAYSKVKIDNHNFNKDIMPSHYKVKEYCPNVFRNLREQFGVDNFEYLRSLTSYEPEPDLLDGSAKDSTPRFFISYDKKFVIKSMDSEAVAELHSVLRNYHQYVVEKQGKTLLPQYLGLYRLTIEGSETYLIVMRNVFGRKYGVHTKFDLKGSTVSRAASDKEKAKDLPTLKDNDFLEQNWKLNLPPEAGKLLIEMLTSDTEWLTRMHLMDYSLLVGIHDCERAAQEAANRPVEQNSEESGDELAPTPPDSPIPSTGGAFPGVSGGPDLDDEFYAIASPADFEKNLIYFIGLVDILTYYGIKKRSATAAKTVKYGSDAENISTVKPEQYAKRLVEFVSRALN
Description: radiometric lipid kinase assay, TLC. Format: biochemical. Conditions: PtdIns5P co-substrate, 10 mM MgCl2, pH 7.4, 30 °C; labelled compound.

The next test has as its target T4, PI5P4Kγ (Homo sapiens, UniProt Q8TBX8, E153T/N195G/E196V/D197E, form not given).
T4 construct: gene PIP4K2C
Particulars: read-out: Km (μM ATP); PtdIns5P co-substrate, 10 mM MgCl2, pH 7.4, 30 °C, ATP 0–150 μM.

T4 sequence (Q8TBX8 2-421 E153T/N195G/E196V/D197E, form open): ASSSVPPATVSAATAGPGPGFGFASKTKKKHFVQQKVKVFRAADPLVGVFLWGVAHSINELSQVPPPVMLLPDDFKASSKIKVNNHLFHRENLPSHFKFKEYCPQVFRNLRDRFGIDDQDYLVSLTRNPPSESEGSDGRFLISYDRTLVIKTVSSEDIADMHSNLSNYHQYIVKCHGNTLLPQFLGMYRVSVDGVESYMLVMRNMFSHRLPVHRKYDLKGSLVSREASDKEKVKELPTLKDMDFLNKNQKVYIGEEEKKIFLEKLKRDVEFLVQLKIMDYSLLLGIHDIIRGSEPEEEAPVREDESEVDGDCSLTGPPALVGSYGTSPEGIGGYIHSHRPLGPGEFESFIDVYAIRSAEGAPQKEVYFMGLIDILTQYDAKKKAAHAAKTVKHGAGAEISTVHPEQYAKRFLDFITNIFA

The term Km denotes the substrate concentration at which the rate is half of its maximum. For the compound `Nc1ncnc2c1ncn2[C@@H]1O[C@H](COP(=O)(O)OP(=O)(O)OP(=O)(O)O)[C@@H](O)[C@H]1O` [ATP], the values for the Km at PI5P4Kβ and at PI5P4Kγ were 7.58 µM and 3.96 µM, respectively. Also, the “radiometric lipid kinase assay, TLC” value on dPIP4K was “We assayed the PI5P4K activity of recombinant dPIP4K from D. melanogaster”; at PPK-2 it was “PPK-2 from C. elegans had a similar specific activity to that of PI5P4Kγ”.

Source of the values: paper PMC3749867, “Evolutionarily conserved structural changes in phosphatidylinositol 5-phosphate 4-kinase (PI5P4K) isoforms are responsible for differences in enzyme activity and localization” (Biochemical Journal, 2013).
